This note sets out measurements from article PMC5564600 (Oncotarget, 2017).

Common to all, as to assay: biochemical
What all share (type): binding

Assay [1] concerns the target T1, panel of 442 kinases (Homo sapiens, UniProt O14730).
T1 construct: purchased Ambit Biosciences (scanMAXX KINOMEscan)
T1 sequence (O14730 1-519): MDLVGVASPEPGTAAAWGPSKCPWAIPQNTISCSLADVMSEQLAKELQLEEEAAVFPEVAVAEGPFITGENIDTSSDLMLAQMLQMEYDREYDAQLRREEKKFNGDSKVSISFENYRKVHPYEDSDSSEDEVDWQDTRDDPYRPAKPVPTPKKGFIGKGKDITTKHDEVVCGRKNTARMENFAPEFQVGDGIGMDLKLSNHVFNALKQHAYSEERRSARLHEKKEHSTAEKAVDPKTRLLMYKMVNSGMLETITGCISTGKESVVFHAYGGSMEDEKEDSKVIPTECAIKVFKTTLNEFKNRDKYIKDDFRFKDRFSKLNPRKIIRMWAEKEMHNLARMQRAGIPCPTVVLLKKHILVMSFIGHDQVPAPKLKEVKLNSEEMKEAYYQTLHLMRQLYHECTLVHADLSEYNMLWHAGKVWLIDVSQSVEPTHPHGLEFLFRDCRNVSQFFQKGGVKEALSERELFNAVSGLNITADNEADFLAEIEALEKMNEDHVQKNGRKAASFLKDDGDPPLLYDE
Particulars: kinase RIOK3; for remaining activity at 1 µM: read-out: RIOK3 (% of control at 1 µM).

For assay [2], the target named is T2, panel of 442 kinases (Homo sapiens, UniProt P42680).
T2 construct: purchased Ambit Biosciences (scanMAXX KINOMEscan)
T2 sequence (P42680 1-631): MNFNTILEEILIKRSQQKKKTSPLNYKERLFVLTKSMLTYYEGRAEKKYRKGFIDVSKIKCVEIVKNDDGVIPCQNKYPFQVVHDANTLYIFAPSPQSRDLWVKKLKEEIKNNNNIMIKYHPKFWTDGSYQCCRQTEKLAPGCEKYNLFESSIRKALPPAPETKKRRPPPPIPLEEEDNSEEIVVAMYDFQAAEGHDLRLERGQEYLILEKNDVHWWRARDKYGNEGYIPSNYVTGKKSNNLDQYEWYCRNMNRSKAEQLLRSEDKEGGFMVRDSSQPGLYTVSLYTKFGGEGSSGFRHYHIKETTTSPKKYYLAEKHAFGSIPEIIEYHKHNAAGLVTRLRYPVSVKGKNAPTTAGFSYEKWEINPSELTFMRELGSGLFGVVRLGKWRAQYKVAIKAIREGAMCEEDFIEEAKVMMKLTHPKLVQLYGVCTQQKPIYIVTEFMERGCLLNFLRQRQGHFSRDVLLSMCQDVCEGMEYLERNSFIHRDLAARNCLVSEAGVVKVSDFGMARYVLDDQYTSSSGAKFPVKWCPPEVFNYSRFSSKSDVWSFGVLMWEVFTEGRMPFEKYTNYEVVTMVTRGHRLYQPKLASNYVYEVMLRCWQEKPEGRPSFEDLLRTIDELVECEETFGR
Particulars: kinase TEC; for remaining activity at 1 µM: read-out: TEC (% of control at 1 µM).

Assay [3] deals with T3, panel of 442 kinases (Homo sapiens, UniProt Q06187).
T3 construct: purchased Ambit Biosciences (scanMAXX KINOMEscan)
To be noted: BTK; for remaining activity at 1 µM: read-out: % of control at 1 µM.

The target of assay [4] is T4, panel of 442 kinases (Plasmodium falciparum, UniProt P61075).
T4 construct: purchased Ambit Biosciences (scanMAXX KINOMEscan)
Particulars: kinase PFPK5(P.falciparum); for remaining activity at 1 µM: read-out: % of control at 1 µM; for remaining activity at 10 µM: read-out: % of control at 10 µM.

Assay [5] has as its target T5, panel of 442 kinases (Homo sapiens, UniProt Q8IVW4).
T5 construct: purchased Ambit Biosciences (scanMAXX KINOMEscan)
To be noted: CDKL3; for remaining activity at 1 µM: read-out: % of control at 1 µM.

For assay [6], the target named is T6, panel of 442 kinases (Homo sapiens, UniProt Q9UPZ9).
T6 construct: purchased Ambit Biosciences (scanMAXX KINOMEscan)
T6 sequence (Q9UPZ9 1-632): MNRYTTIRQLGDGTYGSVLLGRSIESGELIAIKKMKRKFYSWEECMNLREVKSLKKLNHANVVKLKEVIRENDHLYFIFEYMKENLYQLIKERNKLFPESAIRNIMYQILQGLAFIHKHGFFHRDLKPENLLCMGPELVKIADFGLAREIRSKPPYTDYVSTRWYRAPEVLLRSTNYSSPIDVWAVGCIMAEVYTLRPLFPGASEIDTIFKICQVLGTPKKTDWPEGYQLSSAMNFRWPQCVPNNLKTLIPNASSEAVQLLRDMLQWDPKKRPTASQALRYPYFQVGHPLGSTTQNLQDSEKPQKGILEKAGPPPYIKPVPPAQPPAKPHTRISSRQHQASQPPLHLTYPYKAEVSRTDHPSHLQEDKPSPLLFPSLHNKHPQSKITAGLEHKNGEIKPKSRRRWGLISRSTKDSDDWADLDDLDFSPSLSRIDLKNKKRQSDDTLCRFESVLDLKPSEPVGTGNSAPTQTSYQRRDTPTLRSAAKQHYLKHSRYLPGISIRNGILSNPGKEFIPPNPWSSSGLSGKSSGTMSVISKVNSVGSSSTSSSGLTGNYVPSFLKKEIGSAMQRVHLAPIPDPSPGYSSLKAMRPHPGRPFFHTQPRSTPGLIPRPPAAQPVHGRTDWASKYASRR
Particulars: kinase ICK; for remaining activity at 1 µM: read-out: % of control at 1 µM.

Assay [7] has as its target T7, panel of 442 kinases (Homo sapiens, UniProt Q13554).
T7 construct: purchased Ambit Biosciences (scanMAXX KINOMEscan)
Particulars: CAMK2B; for remaining activity at 1 µM: read-out: % of control at 1 µM.

The target of assay [8] is T8, panel of 442 kinases (Homo sapiens, UniProt P36507).
T8 construct: purchased Ambit Biosciences (scanMAXX KINOMEscan)
Particulars: kinase MEK2; for remaining activity at 1 µM: read-out: % of control at 1 µM.

Assay [9] has as its target T9, panel of 442 kinases (Homo sapiens, UniProt Q9BX84).
T9 construct: purchased Ambit Biosciences (scanMAXX KINOMEscan)
Particulars: kinase TRPM6; for remaining activity at 1 µM: read-out: TRPM6 (% of control at 1 µM).

In assay [10] the target is T10, panel of 442 kinases (Homo sapiens, UniProt Q86V86).
T10 construct: purchased Ambit Biosciences (scanMAXX KINOMEscan)
To be noted: kinase PIM3; for remaining activity at 1 µM: read-out: % of control at 1 µM.

[11] abbreviates: 10 µM, read-out: % of control at 10 µM.

T4 sequence (P61075 whole entry): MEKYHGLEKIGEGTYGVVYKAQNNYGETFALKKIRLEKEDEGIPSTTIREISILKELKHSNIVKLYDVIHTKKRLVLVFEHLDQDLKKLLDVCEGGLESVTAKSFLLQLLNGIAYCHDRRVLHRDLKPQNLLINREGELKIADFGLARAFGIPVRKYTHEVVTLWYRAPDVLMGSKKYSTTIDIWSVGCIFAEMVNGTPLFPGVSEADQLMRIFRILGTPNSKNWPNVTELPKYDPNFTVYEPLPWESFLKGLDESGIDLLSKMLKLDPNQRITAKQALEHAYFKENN
T8 sequence (P36507 whole entry): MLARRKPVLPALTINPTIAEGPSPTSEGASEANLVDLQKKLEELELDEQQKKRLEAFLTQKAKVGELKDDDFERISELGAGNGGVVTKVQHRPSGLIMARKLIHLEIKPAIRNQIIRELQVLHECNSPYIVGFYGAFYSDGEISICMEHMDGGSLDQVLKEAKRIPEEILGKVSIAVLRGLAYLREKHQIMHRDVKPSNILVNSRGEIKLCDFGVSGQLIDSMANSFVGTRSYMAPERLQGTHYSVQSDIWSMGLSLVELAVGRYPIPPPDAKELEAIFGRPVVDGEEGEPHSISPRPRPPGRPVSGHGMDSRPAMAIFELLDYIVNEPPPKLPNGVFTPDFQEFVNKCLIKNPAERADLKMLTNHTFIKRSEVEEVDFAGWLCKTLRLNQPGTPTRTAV
T7 sequence (Q13554 whole entry): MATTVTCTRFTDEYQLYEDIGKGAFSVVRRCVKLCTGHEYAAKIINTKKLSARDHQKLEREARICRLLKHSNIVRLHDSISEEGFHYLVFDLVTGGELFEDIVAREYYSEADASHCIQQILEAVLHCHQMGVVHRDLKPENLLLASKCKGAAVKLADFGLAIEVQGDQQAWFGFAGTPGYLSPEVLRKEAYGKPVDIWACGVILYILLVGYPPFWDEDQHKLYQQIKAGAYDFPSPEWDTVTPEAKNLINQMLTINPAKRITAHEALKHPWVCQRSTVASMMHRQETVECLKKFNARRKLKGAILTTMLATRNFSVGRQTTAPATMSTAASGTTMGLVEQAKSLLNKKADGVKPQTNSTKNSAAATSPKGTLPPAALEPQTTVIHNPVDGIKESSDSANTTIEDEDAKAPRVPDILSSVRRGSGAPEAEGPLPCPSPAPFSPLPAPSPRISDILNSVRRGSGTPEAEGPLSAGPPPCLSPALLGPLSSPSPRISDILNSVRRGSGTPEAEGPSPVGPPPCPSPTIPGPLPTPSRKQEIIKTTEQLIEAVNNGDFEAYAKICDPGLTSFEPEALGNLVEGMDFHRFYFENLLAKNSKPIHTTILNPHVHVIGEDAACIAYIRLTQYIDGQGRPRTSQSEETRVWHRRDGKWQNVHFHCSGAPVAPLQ
T9 sequence (Q9BX84 whole entry): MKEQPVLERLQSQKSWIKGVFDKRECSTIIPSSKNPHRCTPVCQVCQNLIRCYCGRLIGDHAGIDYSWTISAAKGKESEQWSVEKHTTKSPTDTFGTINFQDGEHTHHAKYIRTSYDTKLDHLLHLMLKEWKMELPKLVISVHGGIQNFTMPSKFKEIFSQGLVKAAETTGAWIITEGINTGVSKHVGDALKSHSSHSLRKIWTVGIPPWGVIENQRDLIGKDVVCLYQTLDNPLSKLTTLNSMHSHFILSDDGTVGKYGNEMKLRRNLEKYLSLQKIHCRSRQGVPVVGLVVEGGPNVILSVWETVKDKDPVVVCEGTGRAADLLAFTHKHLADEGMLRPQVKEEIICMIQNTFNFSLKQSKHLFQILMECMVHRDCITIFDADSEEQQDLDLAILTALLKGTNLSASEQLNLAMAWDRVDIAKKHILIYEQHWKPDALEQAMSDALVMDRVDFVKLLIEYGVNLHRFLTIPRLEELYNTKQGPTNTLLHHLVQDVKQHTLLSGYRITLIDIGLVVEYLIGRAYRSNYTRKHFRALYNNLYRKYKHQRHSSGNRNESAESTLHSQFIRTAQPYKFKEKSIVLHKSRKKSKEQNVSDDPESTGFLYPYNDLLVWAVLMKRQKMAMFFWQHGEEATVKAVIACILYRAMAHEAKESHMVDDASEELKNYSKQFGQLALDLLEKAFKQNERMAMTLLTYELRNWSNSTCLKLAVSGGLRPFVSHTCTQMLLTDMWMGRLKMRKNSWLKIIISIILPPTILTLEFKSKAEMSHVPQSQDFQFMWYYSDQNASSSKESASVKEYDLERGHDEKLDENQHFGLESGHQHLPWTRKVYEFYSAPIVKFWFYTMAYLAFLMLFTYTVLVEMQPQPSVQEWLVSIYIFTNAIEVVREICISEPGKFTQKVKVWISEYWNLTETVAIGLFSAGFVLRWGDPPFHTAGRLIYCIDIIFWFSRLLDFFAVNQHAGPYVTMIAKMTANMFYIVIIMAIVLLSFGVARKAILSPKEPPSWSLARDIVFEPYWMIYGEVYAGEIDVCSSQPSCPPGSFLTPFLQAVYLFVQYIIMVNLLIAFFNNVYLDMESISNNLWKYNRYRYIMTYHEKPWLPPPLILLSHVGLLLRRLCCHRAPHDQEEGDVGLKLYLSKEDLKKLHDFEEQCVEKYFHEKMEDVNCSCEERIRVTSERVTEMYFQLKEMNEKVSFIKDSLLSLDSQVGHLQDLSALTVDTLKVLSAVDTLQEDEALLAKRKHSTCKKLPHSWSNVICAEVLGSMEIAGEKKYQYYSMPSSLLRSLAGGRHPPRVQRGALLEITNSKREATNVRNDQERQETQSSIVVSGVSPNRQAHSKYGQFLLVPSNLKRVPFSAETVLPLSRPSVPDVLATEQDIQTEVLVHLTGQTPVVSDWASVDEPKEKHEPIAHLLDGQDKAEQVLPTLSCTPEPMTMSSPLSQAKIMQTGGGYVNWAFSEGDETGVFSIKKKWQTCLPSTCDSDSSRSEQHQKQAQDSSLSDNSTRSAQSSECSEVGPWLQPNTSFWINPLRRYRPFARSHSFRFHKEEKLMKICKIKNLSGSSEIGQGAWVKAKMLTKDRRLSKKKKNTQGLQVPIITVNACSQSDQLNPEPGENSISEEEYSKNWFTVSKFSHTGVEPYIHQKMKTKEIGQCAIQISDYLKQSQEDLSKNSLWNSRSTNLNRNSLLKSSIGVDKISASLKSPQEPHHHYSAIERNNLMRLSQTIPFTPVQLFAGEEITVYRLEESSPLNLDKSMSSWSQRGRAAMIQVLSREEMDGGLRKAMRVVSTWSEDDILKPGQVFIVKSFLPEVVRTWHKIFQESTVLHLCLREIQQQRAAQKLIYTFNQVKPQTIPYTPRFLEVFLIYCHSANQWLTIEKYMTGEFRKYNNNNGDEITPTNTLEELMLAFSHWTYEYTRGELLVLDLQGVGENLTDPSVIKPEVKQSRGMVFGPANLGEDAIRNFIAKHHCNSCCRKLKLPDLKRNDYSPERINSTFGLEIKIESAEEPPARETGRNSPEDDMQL
T5 sequence (Q8IVW4 whole entry): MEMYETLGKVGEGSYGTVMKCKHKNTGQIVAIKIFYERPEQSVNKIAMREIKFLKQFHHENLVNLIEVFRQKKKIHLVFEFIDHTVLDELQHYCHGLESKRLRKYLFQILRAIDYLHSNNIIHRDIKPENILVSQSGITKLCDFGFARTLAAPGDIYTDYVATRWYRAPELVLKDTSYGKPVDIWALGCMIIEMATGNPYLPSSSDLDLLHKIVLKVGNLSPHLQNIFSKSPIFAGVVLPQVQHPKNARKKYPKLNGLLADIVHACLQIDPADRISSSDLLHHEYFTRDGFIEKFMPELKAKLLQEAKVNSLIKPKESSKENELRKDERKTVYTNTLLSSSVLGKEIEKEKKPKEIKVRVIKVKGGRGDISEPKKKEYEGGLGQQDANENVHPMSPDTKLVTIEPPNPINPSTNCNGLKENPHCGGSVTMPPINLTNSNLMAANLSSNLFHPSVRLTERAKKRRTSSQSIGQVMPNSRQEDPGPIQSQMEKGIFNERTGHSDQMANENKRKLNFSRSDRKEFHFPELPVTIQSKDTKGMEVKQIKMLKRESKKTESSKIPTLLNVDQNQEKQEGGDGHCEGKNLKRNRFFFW
T3 sequence (Q06187 whole entry): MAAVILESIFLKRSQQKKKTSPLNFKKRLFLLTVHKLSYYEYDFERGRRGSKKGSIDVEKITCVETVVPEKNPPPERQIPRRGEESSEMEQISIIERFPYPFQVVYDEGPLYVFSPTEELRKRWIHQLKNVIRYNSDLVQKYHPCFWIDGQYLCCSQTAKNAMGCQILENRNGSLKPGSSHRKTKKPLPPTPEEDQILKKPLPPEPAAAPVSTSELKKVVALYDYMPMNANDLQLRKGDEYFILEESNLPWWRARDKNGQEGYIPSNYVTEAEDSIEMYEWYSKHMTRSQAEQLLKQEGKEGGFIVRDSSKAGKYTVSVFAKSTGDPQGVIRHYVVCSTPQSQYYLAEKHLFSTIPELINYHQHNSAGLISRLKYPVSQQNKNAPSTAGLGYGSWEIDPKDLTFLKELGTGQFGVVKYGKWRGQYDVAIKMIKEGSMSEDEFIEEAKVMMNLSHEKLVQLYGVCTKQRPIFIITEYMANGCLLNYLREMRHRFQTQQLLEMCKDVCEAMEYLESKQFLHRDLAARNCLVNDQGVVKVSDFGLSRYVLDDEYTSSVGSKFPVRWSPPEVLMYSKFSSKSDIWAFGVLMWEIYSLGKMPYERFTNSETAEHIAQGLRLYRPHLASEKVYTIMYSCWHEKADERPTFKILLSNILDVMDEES

Regarding `Nc1cc(C(F)(F)F)c(-c2cc(N3CCOCC3)nc(N3CCOCC3)n2)cn1` [Buparlisib], the remaining activity at 1 µM was 95% at panel of 442 kinases [1]; 87% at panel of 442 kinases [2]; 71% at panel of 442 kinases [3]; 100% on panel of 442 kinases [4]; 92% on panel of 442 kinases [5]; 92% on panel of 442 kinases [6]. For the same compound, the remaining activity at 1 µM was 80% at panel of 442 kinases [7], 100% on panel of 442 kinases [8], 76% on panel of 442 kinases [9] and 100% at panel of 442 kinases [10]. The remaining activity at 10 µM was 95% on panel of 442 kinases [1] (10 µM, read-out: RIOK3 (% of control at 10 µM)); 100% at panel of 442 kinases [2] (10 µM, read-out: TEC (% of control at 10 µM)); 89% at panel of 442 kinases [3] (setting [11]); 100% at panel of 442 kinases [4]; 100% at panel of 442 kinases [5] (setting [11]); 100% on panel of 442 kinases [6] (setting [11]). The remaining activity at 10 µM came out at 79% on panel of 442 kinases [7] (setting [11]); 100% on panel of 442 kinases [8] (setting [11]); 75% at panel of 442 kinases [9] (10 µM, read-out: TRPM6 (% of control at 10 µM)); 93% at panel of 442 kinases [10] (setting [11]).
Consider `Cn1c(=O)n(-c2ccc(C(C)(C)C#N)cc2)c2c3cc(-c4cnc5ccccc5c4)ccc3ncc21` [Dactolisib, 2-methyl-2-[4-(3-methyl-2-oxo-8-quinolin-3-yl-2,3-dihydroimidazo[4,5-c]quinolin-1-yl)-phenyl] propionitrile], for which the remaining activity at 1 µM stood at 70% on panel of 442 kinases [1]; 96% at panel of 442 kinases [2]; 100% on panel of 442 kinases [4]; 57% on panel of 442 kinases [5]; 68% on panel of 442 kinases [6]; 87% at panel of 442 kinases [7]. In addition, the remaining activity at 1 µM on panel of 442 kinases [8] was 73%; on panel of 442 kinases [9], 62%; at panel of 442 kinases [10] it was 100%.
For the compound `FC(F)c1nc2ccccc2n1-c1nc(N2CCOCC2)nc(N2CCOCC2)n1` [ZSTK474, 2-(difluoromethyl)-1-[4,6-di(4-morpholinyl)-1,3,5-triazin-2-yl]-1H-benzimidazole], the remaining activity at 1 µM stood at 71% at panel of 442 kinases [1]; 89% at panel of 442 kinases [2]; 100% on panel of 442 kinases [3]; 100% at panel of 442 kinases [4]; 100% on panel of 442 kinases [5]; 89% on panel of 442 kinases [6]. Moreover, the remaining activity at 1 µM on panel of 442 kinases [7] amounted to 100%; at panel of 442 kinases [8] it was 97%; on panel of 442 kinases [9] it was 74%; at panel of 442 kinases [10] it was 95%.
With `CS(=O)(=O)N1CCN(Cc2cc3nc(-c4cccc5[nH]ncc45)nc(N4CCOCC4)c3s2)CC1` [Pictilisib, 2-(1H-indazol-4-yl)-6-(4-methanesulfonyl-piperazin-1-ylmethyl)-4-morpholin-4-yl-t hieno[3,2-d]pyrimidine], at panel of 442 kinases [4], the remaining activity at 1 µM came out at 92% and the remaining activity at 10 µM turned out to be 100%.
As to `COc1ncc(-c2ccc3nccc(-c4ccnnc4)c3c2)cc1NS(=O)(=O)c1ccc(F)cc1F` [Omipalisib], the remaining activity at 1 µM at panel of 442 kinases [1] amounted to 95%; on panel of 442 kinases [2] it was 100%; at panel of 442 kinases [3] it was 100%; on panel of 442 kinases [4], 100%; at panel of 442 kinases [5], 100%; at panel of 442 kinases [6], 87%. Further, the remaining activity at 1 µM worked out at 100% on panel of 442 kinases [7], 99% on panel of 442 kinases [8], 100% on panel of 442 kinases [9] and 86% on panel of 442 kinases [10].
